This note sets out measurements from patent US20090042993A1, “IDENTIFICATION OF NOVEL POST-TRANSLATIONAL PROTEIN MODIFICATIONS” (priority 2007, published 2009).

Experiment [1] deals with BACE1. The experiment in a line: BACE1 lysine acetylation (immunoprecipitation, anti-acetylated lysine blot, LC-MS/MS mapping) in CHO cells. Format: cell-based, human. The protocol:
Chinese Hamster Ovary (CHO) cells were grown in DMEM (Gibco BRL—Invitrogen, Carlsbad, Calif.) supplemented with 10% fetal bovine serum (FBS) and penicillin/streptomycin (Mediatech, Inc., Herndon, Va.) as described before (Puglielli et al., 2001, Nat. Cell Biol. 3: 905-912; Puglielli et al., 2003, J. Biol. Chem. 278: 19777-19783; Costantini et al., 2005, Biochem. J. 391: 59-67; Costantini et al., 2006, EMBO J. 25: 1997-2006). Cells were maintained in a humidified atmosphere with 5% CO2. For ceramide treatment, C6-ceramide (also simply called ceramide herein) was administered at the final concentration of 10 μM; treatment was started when cells were ˜30% confluent and carried out for 4 days, unless specified otherwise. Treatment with proteasome inhibitors MG-132 (5 μM) and lactacystin (10 μM) was done for 10 hours, as described earlier (Qing et al., 2004, FASEB J. 18: 1571-1573).
For the immunoprecipitation of BACE1, cell lysates were pre-cleared with BioMag Protein A (Polysciences, Inc., Warrington, Pa.); beads were used at the concentration of 15 μl of the slurry per sample and separated with a magnetic holder. BACE1 was then immunoprecipitated with anti-BACE1 antibodies overnight and recovered with BioMag Protein A as above. The immunoprecipitate-bead complexes were washed 3 times in PBS and boiled for 10 min in SDS sample buffer (Invitrogen) with β-mercaptoethanol. Beads were then separated and the samples were analyzed by reducing SDS-PAGE.
BACE1-myc was purified via affinity chromatography on a ProFound c-Myc-Tag IP/Co-IP kit (Pierce). Each BACE1 preparation was then precipitated by addition of 4 volumes of acetone, pelletted by centrifugation, washed, and vacuum-dried. […]
A portion of each purified digest, corresponding to 10 μg of pre-digested protein, was analyzed by μLC-MS/MS using a Micromass Q-TOF2 spectrometer to locate acetylation sites. […] Charge dependent collision energy profiles were empirically pre-determined. […]

In experiment [2] the target is T1, ER membrane acetyl-CoA transport activity (Cricetulus griseus, UniProt G3H231).
T1 sequence (G3H231 1-550): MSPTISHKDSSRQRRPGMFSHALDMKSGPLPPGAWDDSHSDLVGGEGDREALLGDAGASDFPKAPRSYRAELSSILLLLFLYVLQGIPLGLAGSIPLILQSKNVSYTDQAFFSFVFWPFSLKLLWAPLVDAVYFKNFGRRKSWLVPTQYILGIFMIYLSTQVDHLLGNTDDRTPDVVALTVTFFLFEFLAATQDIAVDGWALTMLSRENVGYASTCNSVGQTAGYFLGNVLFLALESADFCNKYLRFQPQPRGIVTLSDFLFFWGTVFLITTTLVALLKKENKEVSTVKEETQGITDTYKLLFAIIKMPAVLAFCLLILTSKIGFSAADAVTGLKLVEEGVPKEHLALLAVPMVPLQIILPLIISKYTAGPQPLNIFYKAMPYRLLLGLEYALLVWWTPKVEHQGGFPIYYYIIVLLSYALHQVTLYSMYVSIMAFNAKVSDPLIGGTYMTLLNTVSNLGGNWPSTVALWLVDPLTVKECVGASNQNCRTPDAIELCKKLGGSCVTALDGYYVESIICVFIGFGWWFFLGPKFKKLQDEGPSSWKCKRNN
The experiment in a line: Acetyl-CoA transport assay into intact ER vesicles. Type of experiment: biochemical, Chinese Hamster.
Description: Intact vesicles from the endoplasmic reticulum (ER) and the Golgi apparatus were purified on a 10-34% Iodixanol (OptiPrep; Axis-Shield, Norway) continuous gradient as described (Puglielli et al., 2001, Nat. Cell Biol. 3: 905-912). […] Fractions enriched in ER and Golgi markers (also called ER or Golgi vesicles herein) were separated, pooled together, and resuspended in isotonic/cryogenic buffer (0.25 M sucrose and 10 mM Tris-HCl, pH 7.4) in the presence of protease inhibitors (Roche). Latency of ER and Golgi vesicles was determined with the glucose-6-phosphatase (Clairmont et al., 1992, J. Biol. Chem. 267: 3983-3900) and the sialyl-transferase (Puglielli and Hirschberg, 1999, J. Biol. Chem. 274: 35596-35600) methods, respectively. The purity of the preparation was further confirmed by assaying the above enzymatic activities, together with transport of CMP-sialic acid.
Briefly, assays were performed in 100 μl final volume (isotonic/cryogenic buffer) using 25 to 50 μg of ER/Golgi vesicles protein. […] After 5 min at 30° C., reactions were stopped by lowering the temperature to 0-4° C. and by adding 100 μl of ice-cold isotonic/cryogenic buffer (described above). […] Pellets were then dissolved in 0.6 mL of NaOH 1 N; after neutralization with 0.2 mL of 4N HCl, samples were counted by scintillation spectrometry. […]
Asterisk (*) indicates statistical significance (n=3) (P<0.0005). FIG. 5(D): transport of CMP-sialic acid into ER and Golgi intact vesicles was measured as described in (A). […] FIG. 5(E): transport of ATP into ER intact vesicles obtained from control and ceramide-treated CHO cells was measured as described in FIG. 5(A). […]
Translocation was measured as described in the Materials and Methods section. […] FIG. 10(E): transport of ATP into ER intact vesicles obtained from control and ceramide-treated CHO cells was measured as described in FIG. 10(A). […]
Results are expressed as percent of control (no CoA; white bar) and are the average±S.D. Asterisk (*) indicates statistical significance. […]

In the case of `CCCCCCCCCCCCC/C=C/[C@@H](O)[C@H](CO)NC(=O)CCCCC` [ceramide, C6-ceramide], the “acetylation of BACE1Ala in vivo” value in experiment [1] (CHO cells stably expressing BACE1Ala grown with ceramide) is on record as “did not induce acetylation”. The “number of acetylated lysine residues of BACE1” value in experiment [1] (MS/MS of tryptic digests, two residues acetylated prior to ceramide treatment) was “increased to seven”. In addition, in experiment [1] (ceramide treatment of cells), the BACE1 acetylation entry is given as “stimulates BACE1 acetylation”. The “increase in the Vmax of acetyl-CoA transport” value in experiment [2] (ER vesicles from ceramide treated cells vs untreated) is reported as about 30%. In addition, the “Km of acetyl-CoA transport” value in experiment [2] (ER vesicles from ceramide treated cells, Lineweaver-Burk) was “comparable to untreated cells”.
